{
  "source": "PubChem BioAssay AID179",
  "about": "(DTP/NCI, 2004)",
  "test_system": "CEM cells HIV-1 protection, formazan growth assay",
  "assay": "NCI AIDS Antiviral Assay",
  "conditions": "for IC50: measured here: growth of uninfected CEM cells",
  "method_in_brief": "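CEM (human) cells, HIV-1 infected vs uninfected, 5-point dosing, formazan growth read-out. Retest threshold 50% protection.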",
  "note": "Values joined by “and” are separate entries in the source; they are usually repeats but may differ in a detail not shown here. Identical values can stand only once. Active and inactive are the calls of the source.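 The calls were made as follows: active = compounds giving half or more protection of infected cells from virus-caused growth loss, again on retest; inactive = the rest.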",
  "data": [
    {"smiles": "Sc1ccccc1C1N(Cc2ccc(Cl)cc2)CCCN1Cc1ccc(Cl)cc1", "values": [
      {"measurement": "EC50", "value": "> 100", "unit": "µM"},
      {"measurement": "IC50", "value": 5.75, "unit": "µM"}
    ]},
    {"smiles": "O=[N+]([O-])c1nccn1CC1OC(n2ccnc2[N+](=O)[O-])C(O)C(O)C1O", "note": "(stereo not given)", "values": [
      {"measurement": "EC50", "value": "> 200", "unit": "µM"},
      {"measurement": "IC50", "value": "> 200", "unit": "µM"}
    ]},
    {"smiles": "Clc1cc2c(c3ncccc13)OCN(Cc1ccccc1)C2", "values": [
      {"measurement": "EC50", "value": "> 200", "unit": "µM"},
      {"measurement": "IC50", "value": 1.02, "unit": "µM"}
    ]},
    {"smiles": "Cc1cc(C)c(C(=O)c2no[n+]([O-])c2C(=O)c2c(C)cc(C)c(Br)c2C)c(C)c1Br", "values": [
      {"measurement": "EC50", "value": "> 1.95", "unit": "µM"},
      {"measurement": "IC50", "value": "> 1.95", "unit": "µM"}
    ]},
    {"smiles": "CN1C(=O)C2CCCN2C(=O)C1(C)NC(=O)OCc1ccccc1", "note": "(stereo not given)", "values": [
      {"measurement": "EC50", "value": "> 269", "unit": "µM"},
      {"measurement": "IC50", "value": "> 269", "unit": "µM"}
    ]},
    {"smiles": "CC(=O)n1c2c(c(=O)n1-c1ccccc1)S(=O)CCC2", "note": "(stereo not given)", "values": [
      {"measurement": "EC50", "value": "> 123", "unit": "µM"},
      {"measurement": "IC50", "value": 89.1, "unit": "µM"}
    ]},
    {"smiles": "CCOc1ccc(N=Cc2ccnc3ccccc23)cc1", "values": [
      {"measurement": "outcome", "value": "inactive"}
    ]},
    {"smiles": "COc1nc(N)c(N=CC(OC(C)=O)C(OC(C)=O)C(COC(C)=O)OC(C)=O)c(=O)n1C", "note": "(stereo not given)", "values": [
      {"measurement": "EC50", "value": "> 200", "unit": "µM"}
    ]},
    {"smiles": "c1ccc(-c2csc3n4ccccc4c[n+]23)cc1", "values": [
      {"measurement": "outcome", "value": "inactive"}
    ]},
    {"smiles": "CCCCOCc1cc(CN2CCN(C)CC2)c(O)c2ncccc12", "values": [
      {"measurement": "EC50", "value": "> 145", "unit": "µM"},
      {"measurement": "IC50", "value": 8.71, "unit": "µM"}
    ]},
    {"smiles": "COC(=O)C(=O)Cc1nc2ccccc2s1", "values": [
      {"measurement": "outcome", "value": "inactive"}
    ]},
    {"smiles": "O=c1oc2ccccc2c(O)c1C(c1ccco1)c1c(O)c2ccccc2oc1=O", "values": [
      {"measurement": "EC50", "value": "> 200", "unit": "µM"},
      {"measurement": "IC50", "value": 33.9, "unit": "µM"}
    ]},
    {"smiles": "Clc1c2ccccc2nc2c1[nH]c1ccccc12", "values": [
      {"measurement": "EC50", "value": "> 200", "unit": "µM"},
      {"measurement": "IC50", "value": 11.2, "unit": "µM"}
    ]},
    {"smiles": "CCOC(=O)c1ccc(/C(C#N)=C/c2ccc(Cl)cc2)cc1", "values": [
      {"measurement": "EC50", "value": "> 200", "unit": "µM"},
      {"measurement": "IC50", "value": "> 200", "unit": "µM"}
    ]},
    {"smiles": "CCOc1ccc2nc(NC(=O)C3C4CCC(O4)C3C(=O)O)sc2c1", "note": "(stereo not given)", "values": [
      {"measurement": "EC50", "value": "> 200", "unit": "µM"},
      {"measurement": "IC50", "value": 135, "unit": "µM"}
    ]},
    {"smiles": "COc1ccc(CNc2cc(=O)n(C)c(=O)[nH]2)cc1", "values": [
      {"measurement": "EC50", "value": "> 200", "unit": "µM"},
      {"measurement": "IC50", "value": "> 200", "unit": "µM"}
    ]},
    {"smiles": "Nc1cccc2cn[nH]c12", "values": [
      {"measurement": "EC50", "value": "> 1480", "unit": "µM"},
      {"measurement": "IC50", "value": 229, "unit": "µM"}
    ]},
    {"smiles": "O=C(/C=C/c1ccc(Cl)cc1)Oc1ccc(/C=C2\\CCCCC2=O)cc1", "values": [
      {"measurement": "EC50", "value": "> 200", "unit": "µM"},
      {"measurement": "IC50", "value": 42.7, "unit": "µM"}
    ]},
    {"smiles": "COCCN1C2=CCCCC2=Nc2c1nc(N)[nH]c2=O", "values": [
      {"measurement": "outcome", "value": "inactive"}
    ]},
    {"smiles": "CNC(=S)Nc1sc2c(c1C#N)CCCC2", "values": [
      {"measurement": "EC50", "value": 148, "unit": "µM"},
      {"measurement": "IC50", "value": 151, "unit": "µM"}
    ]},
    {"smiles": "CCC1(CCC#N)CCC(N)=CC1=O", "note": "(stereo not given)", "values": [
      {"measurement": "EC50", "value": "> 200", "unit": "µM"},
      {"measurement": "IC50", "value": "> 200", "unit": "µM"}
    ]},
    {"smiles": "O=C(N/C(=C\\c1ccccc1)C1Nc2ccccc2C(=O)O1)c1ccccc1", "note": "(stereo not given)", "values": [
      {"measurement": "EC50", "value": "> 200", "unit": "µM"},
      {"measurement": "IC50", "value": 17.4, "unit": "µM"}
    ]},
    {"smiles": "OC1CCCC2CCC[N-]C12.OC1CCCC2CCC[N-]C12.[Mn+2]", "note": "(stereo not given)", "values": [
      {"measurement": "outcome", "value": "inactive"}
    ]},
    {"smiles": "CCc1c2c(cc3c1CC1(C3)Cc3cc4c(c(C(=O)OC)c3C1)CCCC4)CCCC2", "note": "(stereo not given)", "values": [
      {"measurement": "EC50", "value": "> 200", "unit": "µM"},
      {"measurement": "IC50", "value": 166, "unit": "µM"}
    ]},
    {"smiles": "CC(C)=[CH][Sb]([Br])([CH]=C(C)C)([CH]=C(C)C)[c]1ccccc1", "values": [
      {"measurement": "EC50", "value": "> 562", "unit": "µM"},
      {"measurement": "IC50", "value": 6.76, "unit": "µM"}
    ]},
    {"smiles": "COc1ccccc1/C=C/C(=O)O", "values": [
      {"measurement": "EC50", "value": "> 525", "unit": "µM"},
      {"measurement": "IC50", "value": "> 525", "unit": "µM"}
    ]},
    {"smiles": "O=C(O)CCSCc1cc(C(=O)Nc2ccc(/C=C/c3ccc(NC(=O)c4cc(CSCCC(=O)O)c5ccccc5c4O)cc3S(=O)(=O)O)c(S(=O)(=O)O)c2)c(O)c2ccccc12", "values": [
      {"measurement": "EC50", "value": 83.2, "unit": "µM"},
      {"measurement": "IC50", "value": 162, "unit": "µM"}
    ]},
    {"smiles": "Cc1c2ccc(Cl)cc2nc2ccc(OCCCCCCNC(=O)[C@@H](N)CCCN=C(N)N)cc12", "values": [
      {"measurement": "EC50", "value": "> 100", "unit": "µM"},
      {"measurement": "IC50", "value": 15.5, "unit": "µM"}
    ]},
    {"smiles": "CC(=O)OCC1OC(N2C(=O)[C@H](Oc3ccccc3)[C@@H]2c2ccccc2)C(OC(C)=O)C(OC(C)=O)C1OC(C)=O", "note": "(stereo not given in full)", "values": [
      {"measurement": "EC50", "value": "> 100", "unit": "µM"},
      {"measurement": "IC50", "value": "> 100", "unit": "µM"}
    ]},
    {"smiles": "COC(=O)C12C34C=CC5(CCC6(C=CC1(CC3)O6)C52C(=O)OC)O4", "note": "(stereo not given)", "values": [
      {"measurement": "outcome", "value": "inactive"}
    ]},
    {"smiles": "C=CCC1(C)CCCCC1(O)CS(=O)c1ccccc1", "note": "(stereo not given)", "values": [
      {"measurement": "outcome", "value": "inactive"}
    ]},
    {"smiles": "COc1ccccc1OC(=O)/C=C/c1ccccc1", "values": [
      {"measurement": "EC50", "value": "> 200", "unit": "µM"},
      {"measurement": "IC50", "value": 3.72, "unit": "µM"}
    ]},
    {"smiles": "N[C@H](C(=O)O)[C@H](Cl)CC(=O)O", "values": [
      {"measurement": "EC50", "value": "> 245", "unit": "µM"},
      {"measurement": "IC50", "value": "> 245", "unit": "µM"}
    ]},
    {"smiles": "COc1cc(CNC2=NCCC2)cc(OC)c1OC", "values": [
      {"measurement": "EC50", "value": "> 200", "unit": "µM"},
      {"measurement": "IC50", "value": 47.9, "unit": "µM"}
    ]},
    {"smiles": "c1ccc(CCC[P+](c2ccccc2)(c2ccccc2)c2ccccc2)cc1", "values": [
      {"measurement": "EC50", "value": "> 200", "unit": "µM"},
      {"measurement": "IC50", "value": 0.692, "unit": "µM"}
    ]},
    {"smiles": "CC1(C)OC2[C@@H](CO[C@@]3([C@H]4OC(C)(C)O[C@@H]4CO)OC(C)(C)O[C@@H]23)O1", "note": "(stereo not given in full)", "values": [
      {"measurement": "EC50", "value": "> 200", "unit": "µM"},
      {"measurement": "IC50", "value": "> 200", "unit": "µM"}
    ]},
    {"smiles": "CCC/[N+]([O-])=C/c1ccc([N+](=O)[O-])o1", "values": [
      {"measurement": "outcome", "value": "inactive"}
    ]},
    {"smiles": "Cn1/c(=N\\N=C2\\C=C3CCCCC3(C)CC2)sc2ccccc21", "note": "(stereo not given)", "values": [
      {"measurement": "EC50", "value": "> 200", "unit": "µM"},
      {"measurement": "IC50", "value": 155, "unit": "µM"}
    ]},
    {"smiles": "CC1=NOC/C1=N\\Nc1ccc(C(C)=NC2C3CC4CC(C3)CC2C4)cc1", "note": "(stereo not given)", "values": [
      {"measurement": "EC50", "value": "> 27.5", "unit": "µM"},
      {"measurement": "IC50", "value": "> 27.5", "unit": "µM"}
    ]},
    {"smiles": "C1=Cc2ccccc2/C1=C/c1ccc2c(c1)OCO2", "values": [
      {"measurement": "EC50", "value": "> 20.9", "unit": "µM"},
      {"measurement": "IC50", "value": 12.3, "unit": "µM"}
    ]},
    {"smiles": "BrC1(Br)C2/C=C\\CCCCC21", "note": "(stereo not given)", "values": [
      {"measurement": "outcome", "value": "inactive"}
    ]},
    {"smiles": "CC1C[N+]2(CNC(=O)C3=C(O)C4(O)C(=O)C5=C(O)c6c(O)cccc6C(C)(O)C5CC4C(N(C)C)C3=O)CC(C)O[B-]2(c2ccccc2)O1", "note": "(stereo not given)", "values": [
      {"measurement": "EC50", "value": "> 138", "unit": "µM"},
      {"measurement": "IC50", "value": 105, "unit": "µM"}
    ]},
    {"smiles": "COc1cc(Nc2cnc3cc(F)c(F)cc3n2)cc(OC)c1", "values": [
      {"measurement": "EC50", "value": "> 200", "unit": "µM"},
      {"measurement": "IC50", "value": "> 200", "unit": "µM"}
    ]},
    {"smiles": "O=C(c1ccccc1)C1C(C(=O)c2ccccc2)N1Cc1ccccc1", "note": "(stereo not given)", "values": [
      {"measurement": "EC50", "value": "> 200", "unit": "µM"},
      {"measurement": "IC50", "value": "60.3 µM and > 55 µM"}
    ]},
    {"smiles": "c1ccc2c(c1)[nH]c1c3ccccc3sc21", "values": [
      {"measurement": "EC50", "value": "> 200", "unit": "µM"},
      {"measurement": "IC50", "value": "> 200", "unit": "µM"}
    ]}
  ]
}
